Source: patent publication US12331051B2 (priority 2021, dated 2025)

Columns and labels:
Assay in all cases: Radioligand binding, cell membrane homogenates
[1] = target: T1, 5-HT2A receptor (5-HT2AR) (Homo sapiens, UniProt P28223)
T1 construct: expressed in transfected cells; host or cells: HEK-293
Protocol: (§1) Neuro-receptor binding and functional effects of the “E559 polymorph” was examined by analyzing binding affinity [Ki (nM)], functional agonist activity [EC50 (nM)], and functional antagonist activity [IC50 (nM)] against a panel of key receptors in neurophysiological disorders. Binding and functional assays were performed at “E559 polymorph” concentrations of 0.0003, 0.003, 0.01, 0.03, 0.1, 0.3, 1, and 10 μM. In binding assays, cell membrane homogenates, expressing each receptor target, were incubated with the corresponding radio-ligand in absence or presence of several concentration of the “E559 polymorph” compound. The measurement of binding affinity of the “E559 polymorph” is represented in TABLE XIII by Ki (nM) which was calculated as percent inhibition of the binding of a radioactively labeled reference ligand at each receptor. In functional assays the HEK-293 cells expressing each receptor target were suspended in buffer and distribute in microplates and incubated for 30 minutes at room temperature or 37° C. in the presence of buffer alone (basal control), the reference agonist or antagonist, or the “E559 polymorph. Following incubation, the cells were lysed and the appropriate fluorescent probe (Ca2+ flux, cAMP, or IP1) were added for 60 minutes to measure the fluorescence transfer at the appropriate wavelength using a microplate reader. The cellular agonist effect (EC50) was calculated as a percent of control response to a known reference agonist and the cellular antagonist effect (IC50) was calculated as a percent inhibition of control reference agonist response for each receptor.

[2] = target: T2, Alpha 1A adrenergic receptor (Homo sapiens, UniProt P35348)
T2 construct: expressed in transfected cells; host or cells: HEK-293
T2 sequence (P35348 1-466): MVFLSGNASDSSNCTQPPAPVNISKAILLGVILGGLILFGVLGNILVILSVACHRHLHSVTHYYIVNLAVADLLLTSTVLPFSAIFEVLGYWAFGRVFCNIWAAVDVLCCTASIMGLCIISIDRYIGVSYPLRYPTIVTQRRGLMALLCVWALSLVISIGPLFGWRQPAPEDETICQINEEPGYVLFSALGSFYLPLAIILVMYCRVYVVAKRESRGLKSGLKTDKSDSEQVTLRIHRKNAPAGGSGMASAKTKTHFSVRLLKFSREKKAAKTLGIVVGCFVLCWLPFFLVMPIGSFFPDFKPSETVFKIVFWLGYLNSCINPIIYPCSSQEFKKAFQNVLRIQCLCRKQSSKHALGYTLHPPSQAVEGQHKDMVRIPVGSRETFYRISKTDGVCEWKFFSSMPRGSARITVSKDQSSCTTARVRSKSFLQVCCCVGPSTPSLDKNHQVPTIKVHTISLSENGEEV
Protocol: as §1

[3] = target: T3, Alpha 2A adrenergic receptor (Homo sapiens, UniProt P08913)
T3 construct: expressed in transfected cells; host or cells: HEK-293
T3 sequence (P08913 1-465): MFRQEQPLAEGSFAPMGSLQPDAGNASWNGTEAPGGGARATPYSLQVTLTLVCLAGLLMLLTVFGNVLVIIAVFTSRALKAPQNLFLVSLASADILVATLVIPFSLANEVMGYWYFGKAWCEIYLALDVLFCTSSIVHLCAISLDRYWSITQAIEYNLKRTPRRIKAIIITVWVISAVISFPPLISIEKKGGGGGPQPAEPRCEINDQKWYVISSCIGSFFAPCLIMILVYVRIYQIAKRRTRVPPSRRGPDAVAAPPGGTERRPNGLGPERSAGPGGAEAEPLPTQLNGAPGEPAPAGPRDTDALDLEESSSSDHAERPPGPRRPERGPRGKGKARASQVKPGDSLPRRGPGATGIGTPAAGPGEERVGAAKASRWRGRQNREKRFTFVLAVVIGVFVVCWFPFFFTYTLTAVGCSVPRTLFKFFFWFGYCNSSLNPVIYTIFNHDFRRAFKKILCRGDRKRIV
Protocol: as §1

[4] = target: T4, Alpha 2B adrenergic receptor (Homo sapiens, UniProt P18089)
T4 construct: expressed in transfected cells; host or cells: HEK-293
T4 sequence (P18089 1-450): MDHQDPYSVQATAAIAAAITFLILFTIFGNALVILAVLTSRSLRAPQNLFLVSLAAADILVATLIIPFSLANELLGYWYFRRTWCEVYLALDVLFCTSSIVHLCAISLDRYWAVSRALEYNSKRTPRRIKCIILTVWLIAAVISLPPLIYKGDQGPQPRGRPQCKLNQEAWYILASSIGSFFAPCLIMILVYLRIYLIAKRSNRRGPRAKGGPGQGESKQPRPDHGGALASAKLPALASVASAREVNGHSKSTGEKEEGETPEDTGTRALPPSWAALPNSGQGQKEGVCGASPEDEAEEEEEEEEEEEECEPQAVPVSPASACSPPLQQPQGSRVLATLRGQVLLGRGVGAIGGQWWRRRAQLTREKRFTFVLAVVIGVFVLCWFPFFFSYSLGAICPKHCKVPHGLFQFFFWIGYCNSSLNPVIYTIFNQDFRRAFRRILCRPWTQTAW
Protocol: as §1

[5] = target: T5, Alpha 2C adrenergic receptor (Homo sapiens, UniProt P18825)
T5 construct: expressed in transfected cells; host or cells: HEK-293
T5 sequence (P18825 1-462): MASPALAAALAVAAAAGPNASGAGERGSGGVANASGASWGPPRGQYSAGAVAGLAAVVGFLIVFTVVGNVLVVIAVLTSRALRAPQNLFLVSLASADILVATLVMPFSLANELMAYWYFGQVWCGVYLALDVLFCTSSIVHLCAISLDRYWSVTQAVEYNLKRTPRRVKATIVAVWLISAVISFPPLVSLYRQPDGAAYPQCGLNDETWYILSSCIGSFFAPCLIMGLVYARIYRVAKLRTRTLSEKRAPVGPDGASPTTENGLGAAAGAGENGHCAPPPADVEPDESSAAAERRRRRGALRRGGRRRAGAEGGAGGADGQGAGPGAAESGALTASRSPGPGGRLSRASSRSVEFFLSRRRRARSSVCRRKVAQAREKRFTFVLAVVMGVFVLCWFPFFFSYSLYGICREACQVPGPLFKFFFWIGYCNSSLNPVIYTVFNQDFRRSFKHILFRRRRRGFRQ
Protocol: as §1

[6] = target: T6, Beta 1 adrenergic receptor (Homo sapiens, UniProt P08588)
T6 construct: expressed in transfected cells; host or cells: HEK-293
Protocol: as §1

[7] = target: T7, Serotonin 1B receptor (5-HT1BR) (Homo sapiens, UniProt P28222)
T7 construct: expressed in transfected cells; host or cells: HEK-293
Protocol: as §1

[8] = target: T8, Serotonin 7 receptor (5-HT7R) (Homo sapiens, UniProt P34969)
T8 construct: expressed in transfected cells; host or cells: HEK-293
Protocol: as §1

T7 sequence (P28222 whole entry): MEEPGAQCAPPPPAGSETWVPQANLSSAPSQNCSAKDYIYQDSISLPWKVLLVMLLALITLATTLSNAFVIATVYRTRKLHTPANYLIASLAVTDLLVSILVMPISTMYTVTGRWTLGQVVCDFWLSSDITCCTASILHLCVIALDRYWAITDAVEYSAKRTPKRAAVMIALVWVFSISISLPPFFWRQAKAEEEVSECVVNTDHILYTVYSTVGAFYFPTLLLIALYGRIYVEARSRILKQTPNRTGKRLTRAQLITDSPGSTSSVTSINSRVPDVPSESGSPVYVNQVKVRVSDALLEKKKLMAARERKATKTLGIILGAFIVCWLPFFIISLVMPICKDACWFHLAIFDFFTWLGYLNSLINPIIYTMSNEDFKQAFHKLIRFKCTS
T1 sequence (P28223 whole entry): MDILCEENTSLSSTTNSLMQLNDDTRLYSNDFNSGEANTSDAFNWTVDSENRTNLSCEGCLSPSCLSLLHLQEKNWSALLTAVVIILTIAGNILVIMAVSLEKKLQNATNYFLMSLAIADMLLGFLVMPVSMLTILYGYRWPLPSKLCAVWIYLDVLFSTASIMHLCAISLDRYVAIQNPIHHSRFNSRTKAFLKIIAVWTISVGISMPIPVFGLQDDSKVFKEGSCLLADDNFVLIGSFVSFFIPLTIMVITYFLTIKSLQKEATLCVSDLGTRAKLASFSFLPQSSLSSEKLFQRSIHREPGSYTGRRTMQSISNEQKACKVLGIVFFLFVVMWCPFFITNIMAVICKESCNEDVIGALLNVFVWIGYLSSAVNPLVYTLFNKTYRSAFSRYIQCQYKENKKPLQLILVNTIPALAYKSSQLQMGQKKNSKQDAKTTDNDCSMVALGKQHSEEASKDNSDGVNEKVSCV
T6 sequence (P08588 whole entry): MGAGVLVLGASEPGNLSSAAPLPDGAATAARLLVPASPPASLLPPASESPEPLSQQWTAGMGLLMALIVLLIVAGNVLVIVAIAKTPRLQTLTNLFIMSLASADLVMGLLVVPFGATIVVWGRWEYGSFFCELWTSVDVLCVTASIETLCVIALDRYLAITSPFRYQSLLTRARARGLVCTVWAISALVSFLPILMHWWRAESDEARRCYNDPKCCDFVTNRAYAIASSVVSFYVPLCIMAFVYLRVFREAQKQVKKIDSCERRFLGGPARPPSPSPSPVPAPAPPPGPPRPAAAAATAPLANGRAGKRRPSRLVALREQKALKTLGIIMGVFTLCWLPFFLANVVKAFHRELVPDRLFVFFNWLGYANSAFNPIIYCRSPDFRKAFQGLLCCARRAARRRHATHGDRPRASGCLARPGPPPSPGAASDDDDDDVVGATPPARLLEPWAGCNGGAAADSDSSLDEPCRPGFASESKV
T8 sequence (P34969 whole entry): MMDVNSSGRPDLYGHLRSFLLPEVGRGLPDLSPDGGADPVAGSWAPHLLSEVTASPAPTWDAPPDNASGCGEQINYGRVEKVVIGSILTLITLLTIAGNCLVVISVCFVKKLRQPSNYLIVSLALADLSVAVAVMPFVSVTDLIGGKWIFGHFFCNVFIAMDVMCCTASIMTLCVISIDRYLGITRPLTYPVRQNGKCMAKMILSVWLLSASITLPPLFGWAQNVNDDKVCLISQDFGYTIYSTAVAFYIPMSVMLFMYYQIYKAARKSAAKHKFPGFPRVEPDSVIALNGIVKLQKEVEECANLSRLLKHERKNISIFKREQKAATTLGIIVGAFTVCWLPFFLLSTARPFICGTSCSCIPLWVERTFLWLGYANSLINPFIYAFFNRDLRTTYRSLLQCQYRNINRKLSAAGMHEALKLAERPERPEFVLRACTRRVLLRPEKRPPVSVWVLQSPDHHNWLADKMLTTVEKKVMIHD

`CCN(CC)C(=O)[C@@H]1C=C2c3cccc4[nH]c(Br)c(c34)C[C@H]2N(C)C1` [E559, (5R, 8R)-2-Bromo-9,10-didehydro-N,N-diethyl-6-methylergoline-8-carboxamide hemi-D-tartrate] gave a Ki [1] of 2.2 nM, a Ki [2] of 59 nM and a Ki [3] of 10.3 nM. The Ki [4] was 27 nM, the Ki [5] was 27 nM and the Ki [6] was 109 nM. It also gave a Ki [7] of 77 nM and a Ki [8] of 3.81 nM.
